What was measured:
[1] = species on record: Oryctolagus cuniculus
Description: Activation of cAMP-dependent protein kinase type I

[2] = molecular target: cAMP-dependent protein kinase A (Bos taurus) (UniProt P00517+P05131+P31322+P00515)
Description: Activation of cAMP-dependent protein kinase type II

O=P1(O)OC[C@H]2O[C@@H](n3ncc4ccccc43)[C@H](O)[C@@H]2O1
K'a [1]: 0.014
K'a [2]: 0.048

O=P1(O)OC[C@H]2O[C@@H](n3nnc4ccccc43)[C@H](O)[C@@H]2O1 (stereo in doubt; 14)
K'a [1]: 0.64
K'a [2]: 0.88

O=[N+]([O-])c1cccc2c1ncn2[C@@H]1O[C@@H]2COP(=O)(O)O[C@H]2[C@H]1O
K'a [1]: 0.08
K'a [2]: 1.56

O=P1(O)OC[C@H]2O[C@@H](n3nc4ccccc4n3)[C@H](O)[C@@H]2O1
K'a [1]: 0.82
K'a [2]: 3.5

Nc1cccc2c1cnn2[C@H]1O[C@@H]2COP(=O)(O)O[C@H]2[C@H]1O
K'a [1]: 0.65
K'a [2]: 0.54

O=P1(O)OC[C@H]2O[C@@H](n3cc4ccccc4n3)[C@H](O)[C@@H]2O1
K'a [1]: 0.14
K'a [2]: 1.4

O=[N+]([O-])c1cccc2c1cnn2[C@@H]1O[C@@H]2COP(=O)(O)O[C@H]2[C@H]1O
K'a [1]: 1.17
K'a [2]: 2.5

O=P1(O)OC[C@H]2O[C@@H](n3nnc4ccccc43)[C@H](O)[C@@H]2O1 (stereo in doubt)
K'a [1]: 0.25
K'a [2]: 0.7

Nc1cccc2c1ncn2[C@@H]1O[C@@H]2COP(=O)(O)O[C@H]2[C@H]1O
K'a [1]: 0.2
K'a [2]: 0.67

Nc1cccc2c1nnn2[C@@H]1O[C@@H]2COP(=O)(O)O[C@H]2[C@H]1O
K'a [1]: 0.88
K'a [2]: 0.93

O=[N+]([O-])c1cccc2c1nnn2[C@@H]1O[C@@H]2COP(=O)(O)O[C@H]2[C@H]1O
K'a [1]: 0.88
K'a [2]: 1
